According to the supplement of paper PMC10307832:

Assays:
Assay in all cases: relative viability (nuclei count vs DMSO), 5 days (fraction); higher = more cells survive
[1] = compound: CC1=CC(=C(N1C2=CC=C(C=C2)Cl)C)C(=O)CN3CCCCC3 [IU1-47] + CS(=O)(=O)CCNCc1ccc(-c2ccc3ncnc(Nc4ccc(OCc5cccc(F)c5)c(Cl)c4)c3c2)o1 [Lapatinib] (partner 2 µM)
Method in brief: (§1)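 Each reported value is a median over duplicate plates. It expresses relative viability: treated-well nuclei count divided by vehicle-well nuclei count. Lung cancer cell lines in 1536-well plates were dosed by pin tool a day after seeding, alone with one drug or with a fixed anchor-drug dose plus five library-drug doses (not always all listed) in √10 steps, and nuclei were counted after 5 days.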

[2] = compound: CC1=CC(=C(N1C2=CC=C(C=C2)Cl)C)C(=O)CN3CCCCC3 [IU1-47] + Cc1nc(Nc2ncc(C(=O)Nc3c(C)cccc3Cl)s2)cc(N2CCN(CCO)CC2)n1 [Dasatinib] (partner 0.075 µM)
Method in brief: as §1

[3] = compound: Cc1nc(C(=O)NCC(=O)O)c(O)c2ccc(Oc3ccccc3)cc12 [FG-4592] + C[C@@H](Oc1cc(-c2cnn(C3CCNCC3)c2)cnc1N)c1c(Cl)ccc(F)c1Cl [Crizotinib] (partner 1 µM)
Method in brief: as §1

[4] = compound: Cc1nc(C(=O)NCC(=O)O)c(O)c2ccc(Oc3ccccc3)cc12 [FG-4592] + O=C(c1cc(Cc2n[nH]c(=O)c3ccccc23)ccc1F)N1CCN(C(=O)C2CC2)CC1 [Olaparib] (partner 8 µM)
Method in brief: as §1

Cell Line	relative viability ([1]; first compound 0.08 µM)	relative viability ([1]; first compound 0.253 µM)	relative viability ([1]; first compound 0.8 µM)	relative viability ([1]; first compound 2.53 µM)	relative viability ([1]; first compound 8 µM)	relative viability ([2]; first compound 0.08 µM)	relative viability ([2]; first compound 0.253 µM)	relative viability ([2]; first compound 0.8 µM)	relative viability ([2]; first compound 2.53 µM)	relative viability ([2]; first compound 8 µM)	relative viability ([3]; first compound 0.08 µM)	relative viability ([3]; first compound 0.253 µM)	relative viability ([3]; first compound 0.8 µM)	relative viability ([3]; first compound 2.53 µM)	relative viability ([3]; first compound 8 µM)	relative viability ([4]; first compound 0.08 µM)	relative viability ([4]; first compound 0.253 µM)	relative viability ([4]; first compound 0.8 µM)	relative viability ([4]; first compound 2.53 µM)	relative viability ([4]; first compound 8 µM)
LXF-289	0.935	0.921	0.877	0.911	0.819	0.219	0.24	0.179	0.223	0.209	0.796	0.721	0.911	0.77	0.901	1.09	0.961	1.07	1.01	1.1
NCI-H23	1.04	1.05	1.26	0.995	1.25	0.925	0.625	0.9	0.671	0.743	0.556	0.471	0.654	0.627	0.472	0.34	0.333	0.365	0.321	0.296
NCI-H322M	0.574	0.622	0.507	0.633	0.561	0.251	0.251	0.257	0.265	0.238	0.924	0.886	1.19	1.02	0.815		0.746	0.713	0.766	0.897
NCI-H358	0.445	0.381	0.481		0.456	0.147	0.142	0.156	0.168	0.211	0.531	0.602	0.703	0.704	0.594	0.55	0.552	0.662	0.579	0.695
NCI-H460	1.2	1.14	0.997	0.655	0.7	0.68	0.508	0.654	0.538	0.501	0.87	0.864	1.21	0.952	0.994	0.445	0.449	0.462	0.51	0.43
NCI-H520	0.774	0.858	1	0.879	0.59	0.197	0.172	0.203	0.217	0.166	0.731	0.652	0.932	0.758	0.586	0.361	0.342	0.303	0.391	0.385
NCI-H596	1.04	1.11	1.02	1.2	0.989	0.574	0.617	0.606	0.595	0.554	1.02	0.898		0.806	0.778	0.663	0.641		0.708	0.625
NCI-H647	1.02	1.22	1.37	1.22	0.49	0.171	0.179		0.155	0.177	0.941	1.04	1.01	1.17	1.03	0.597	0.533	0.489	0.635	0.416
NCI-H650	0.854	0.934	0.656	1.03	0.74	0.457	0.439	0.476	0.427	0.445	0.598	0.648	0.756	0.654	0.61	0.343	0.32	0.44	0.364	0.354
NCI-H661	0.562	0.546	0.51	0.338	0.552	0.884	0.879	0.83	0.77	0.695			1.29	1.04	1.1	0.708	0.727	0.822	0.757	0.816
NCI-H727	0.762		1.11	0.642	0.833	0.396	0.398	0.362	0.289	0.442	0.776	0.827	0.913	1.1	0.83	0.698	0.782	0.752	0.681	0.672
NCI-H838	0.922	0.889	1.23	1.01	0.888	0.31	0.31	0.32	0.3	0.281	0.795	0.799	0.962	0.941	0.904	0.796	0.71	0.796	0.756	0.806
NCI-H1355	1.11	1.11	1.08	0.627	0.983	0.655	0.798	0.706		0.667	1.05	1.02		1.07	0.944	0.803	0.66		0.759	0.719
NCI-H1437	0.726	0.716	0.801	0.76	0.744	0.369	0.348	0.384	0.35	0.365	0.95	0.911	1.03	0.936	0.879	0.581	0.602	0.679	0.651	0.6
NCI-H1650	0.755	0.717	0.935	0.57	0.351	0.269	0.311	0.283	0.292	0.27	1.14	0.826	1.21	1.05	1.02	0.786	0.721	0.843	0.781	0.869
NCI-H1651	0.735	0.743	0.913		0.943	0.325	0.412	0.454	0.414	0.39	0.89	0.799	0.829	0.863	0.862	0.182	0.175	0.196	0.17	0.176
NCI-H1666	0.613	0.658	0.621	0.584	0.508	0.79	0.806	0.761	0.793	0.676	0.993	0.903	0.829	0.944	0.728	0.764	0.744	0.809	0.796	0.779

Cell Line	relative viability ([1]; first compound 0.08 µM)	relative viability ([1]; first compound 0.253 µM)	relative viability ([1]; first compound 0.8 µM)	relative viability ([1]; first compound 2.53 µM)	relative viability ([1]; first compound 8 µM)	relative viability ([2]; first compound 0.08 µM)	relative viability ([2]; first compound 0.253 µM)	relative viability ([2]; first compound 0.8 µM)	relative viability ([2]; first compound 2.53 µM)	relative viability ([2]; first compound 8 µM)	relative viability ([3]; first compound 0.08 µM)	relative viability ([3]; first compound 0.253 µM)	relative viability ([3]; first compound 0.8 µM)	relative viability ([3]; first compound 2.53 µM)	relative viability ([3]; first compound 8 µM)	relative viability ([4]; first compound 0.08 µM)	relative viability ([4]; first compound 0.253 µM)	relative viability ([4]; first compound 0.8 µM)	relative viability ([4]; first compound 2.53 µM)	relative viability ([4]; first compound 8 µM)
NCI-H1734	1.05	1.15	1.12		1.02	0.493	0.531	0.461		0.406	0.638	0.711	0.674	0.595	0.643	0.597	0.61	0.664	0.68	0.605
NCI-H1755	1.17	1.1	1.15	1.11	0.872	0.455	0.528	0.426	0.409	0.36	0.77	0.875	0.864	0.941	0.916	0.873	0.837	0.762	0.907	0.799
NCI-H1792	0.923	0.999	0.988	0.956	0.514	0.937	0.876	1.03	0.556	0.803	0.96	0.764	0.812	1.01	0.975	0.487	0.432		0.457	0.497
NCI-H1915	0.992	1.01	0.976		0.999	0.318	0.3	0.334		0.306	0.87	0.883	0.922	0.874	0.905	0.25	0.248	0.276	0.253	0.282
NCI-H1944	0.835	0.845	0.779		0.801	0.213	0.214	0.204	0.2	0.203	1.05	1.1	1.13	1.17	1.05	0.437	0.392	0.443	0.376	0.419
NCI-H1975	0.844	0.879	0.934	0.883	0.846	0.329	0.343	0.372	0.318	0.361	0.921	0.892	1.11	0.991	0.897	0.786	0.747	0.883	0.849	0.721
NCI-H1993	0.82	0.754	0.741	0.815	0.748	0.497	0.732	0.651	0.548	0.571	0.969	0.873	0.919	0.834	0.828	0.947	0.926		1.01	0.929
NCI-H2009	0.997	1.03	1.07	0.43	1.54	0.257	0.263	0.293	0.231	0.241	1.14	0.967	1.01	0.953	0.98	0.663	0.637	0.715	0.718	0.621
NCI-H2023	0.924	0.872	0.805	0.334	0.994	0.564	0.521	0.657	0.347	0.55	0.609	0.66	0.703	0.768	0.544	0.402	0.471	0.437	0.464	0.35
NCI-H2085	0.7	0.77	0.941	0.681	0.685	0.218	0.269	0.242	0.228	0.252	0.852	0.871	0.928	1.03	0.742	0.738	0.779	0.845	0.744	0.873
NCI-H2087	1.07	1.27	1.16	0.725	0.967	0.963	0.973	1.12		0.681	0.722	0.648	1.01	0.997	0.896	0.561	0.51	0.645		0.475
NCI-H2126	0.802	0.767	0.807	0.523	0.753	0.596	0.717	0.724		0.601	0.989	1.01	1.04	1	1.03	0.964	0.846	0.857	0.876	0.919
NCI-H2170	0.286	0.297	0.289	0.301	0.263	0.601	0.737	0.558	0.526	0.497	1.16	1.14	1.24	1.22	0.909	0.573	0.547	0.707	0.664	0.52
NCI-H2228	0.974	0.885	1.19	0.833	0.734	0.625	0.581	0.471	0.363	0.43	0.592	0.279	0.522	0.437	0.554	0.386	0.697	0.794	0.517	0.693
NCI-H2347	1.13	0.863	1.04	0.761	0.834	0.307	0.307	0.318	0.285	0.342	0.668		0.58	0.724	0.874	0.622	0.485	0.543	0.596	0.607
NCI-H2405	1.04	1.12	1.1		1.11	0.21	0.234	0.208	0.206	0.208	0.665	0.657	0.878	0.857	0.87	0.752	0.772	0.948	0.809	0.859
